In US20110092558A1, “NOVEL MICROBIOCIDES” (SYNGENTA CROP PROTECTION, INC., priority 2008, published 2011):

Key:
Pyrenophora teres = assay: Action against Pyrenophora teres (net blotch) on barley leaf segments, preventive; type: in vivo; conditions: foliar, 96 h, barley leaf segments sprayed with 0.02% active ingredient, assessed 4 days after inoculation, read-out: preventive fungicidal activity (inhibition)
Procedure: Action Against Pyrenophora teres (Net Blotch) on Barley Barley leaf segments are placed on agar in multiwell plates (24-well format) and sprayed with test solutions (0.02% active ingredient). After drying, the leaf disks are inoculated with a spore suspension of the fungus. After appropriate incubation the activity of a compound is assessed 4 days after inoculation as preventive fungicidal activity. Compounds 1.001, 1.004, 1.052, 1.069, 1.134, 1.171, 1.182 and 1.197 show good activity in this test (at least 50% inhibition).

Monographella nivalis = assay: Action against Monographella nivalis (snow mould) - fungal growth assay; type: cell-based; conditions: 0.02% active ingredient, PDB nutrient broth, 24° C., measured photometrically after 72 hrs
Procedure: (§1) Action Against Monographella nivalis (Anamorph: Fusarium nivale, Microdochium nivale; Snow Mould)—Fungal Growth Assay Conidia of the fungus from cryogenic storage are directly mixed into nutrient broth (PDB potato dextrose broth). After placing a DMSO-solution of the test compounds (0.02% active ingredient) into a microtiter plate (96-well format) the nutrient broth containing the fungal spores is added. The test plates are incubated at 24° C. and the inhibition of growth is measured photometrically after 72 hrs. Compounds 1.001, 1.004, 1.052, 1.069, 1.134, 1.171, 1.182 and 1.197 show good activity in this test (at least 50% inhibition).

[1] = system: Erysiphe graminis f.sp. Tritici; assay: Action against Erysiphe graminis f.sp. tritici (wheat powdery mildew), wheat leaf segments, preventive; type: in vivo; conditions: Blumeria graminis, foliar, 168 h; wheat leaf segments sprayed with 0.02% active ingredient; assessed 7 days after inoculation; read-out: preventive fungicidal activity (inhibition)
Procedure: Action Against Erysiphe graminis f.sp. Tritici (Wheat Powdery Mildew) Wheat leaf segments are placed on agar in multiwell plates (24-well format) and sprayed with test solutions (0.02% active ingredient). After drying, the leaf disks are inoculated with a spore suspension of the fungus. After appropriate incubation the activity of a compound is assessed 7 days after inoculation as preventive fungicidal activity. Compounds 1.001, 1.004, 1.052, 1.069, 1.134, and 1.182 show good activity in this test (at least 50% inhibition).

Puccinia recondita = assay: Curative action against Puccinia recondita (brown rust) on wheat leaf segments; type: in vivo; conditions: foliar, wheat leaf segments sprayed with 0.02% active ingredient one day after inoculation, assessed 8 days after inoculation, read-out: curative fungicidal activity (inhibition)
Procedure: Curative Action Against Puccinia recondita (Brown Rust) on Wheat Wheat leaf segments are placed on agar in multiwell plates (24-well format) and inoculated with a spore suspension of the fungus. One day after inoculation the leaf segments are sprayed with test solutions (0.02% active ingredient). After appropriate incubation the activity of a compound is assessed 8 days after inoculation as curative fungicidal activity. Compounds 1.004 and 1.052 show good activity in this test (at least 50% inhibition).

Mycosphaerella arachidis = assay: Action against Mycosphaerella arachidis (early leaf spot of groundnut) - fungal growth assay; type: cell-based; conditions: 0.02% active ingredient, PDB nutrient broth, 24° C., measured photometrically after 6-7 days
Procedure: as §1, with “Mycosphaerella arachidis (Early Leaf Spot of Groundnut Cercospora Arachidicola [Anamorph])—Fungal” for “Monographella nivalis (Anamorph: Fusarium nivale, Microdochium nivale; Snow Mould)—Fungal”, “(DMSO) solution” for “DMSO-solution”, “6-7 days. The activity of a compound is expressed as fungal growth inhibition.” for “72 hrs.”

Septoria tritici = assay: Action against Septoria tritici - fungal growth assay; type: cell-based; conditions: Zymoseptoria tritici; 0.02% active ingredient; PDB nutrient broth, 24° C.; determined photometrically after 72 hrs
Procedure: as §1, with “Septoria tritici—Fungal” for “Monographella nivalis (Anamorph: Fusarium nivale, Microdochium nivale; Snow Mould)—Fungal”, “(DMSO) solution” for “DMSO-solution”, “determined” for “measured”, “hrs. The activity of a compound is expressed as fungal growth inhibition.” for “hrs.”

Botrytis cinerea = assay: Action against Botrytis cinerea - fungal growth assay; type: cell-based; conditions: 0.02% active ingredient, PDB nutrient broth, 24° C., measured photometrically after 3-4 days
Procedure: as §1, with “Botrytis cinerea—Fungal” for “Monographella nivalis (Anamorph: Fusarium nivale, Microdochium nivale; Snow Mould)—Fungal”, “(DMSO) solution” for “DMSO-solution”, “3-4 days. The activity of a compound is expressed as fungal growth inhibition.” for “72 hrs.”, “1.052,” for “1.052, 1.069,”, “1.134,” for “1.134, 1.171,”

Leptosphaeria nodorum = assay: Action against Leptosphaeria nodorum (Septoria nodorum; glume blotch) on wheat leaf segments, preventive; type: in vivo; conditions: Parastagonospora nodorum, foliar, 96 h; wheat leaf segments sprayed with 0.02% active ingredient; assessed 4 days after inoculation; read-out: preventive fungicidal activity (inhibition)
Procedure: Action Against Leptosphaeria nodorum (Septoria nodorum; Glume Blotch) on Wheat Wheat leaf segments are placed on agar in multiwell plates (24-well format) and sprayed with test solutions (0.02% active ingredient). After drying, the leaf disks are inoculated with a spore suspension of the fungus. After appropriate incubation the activity of a compound is assessed 4 days after inoculation as preventive fungicidal activity. Compounds 1.001, 1.004, 1.069, 1.134, and 1.182 show good activity in this test (at least 50% inhibition).

Measured: inhibition at 0.02 % strength

CC(CCc1c(Cl)cc(Cl)cc1Cl)NC(=O)c1cn(C)nc1C(F)F (stereo not shown) [Compound 1.004, 3-difluoromethyl-1-methyl-1H-pyrazole-4-carboxylic acid [1-methyl-3-(2,4,6-trichloro-phenyl)-propyl]-amide]
≥ 50%: all assays above

CC(CCCc1c(Cl)cc(Cl)cc1Cl)NC(=O)c1cn(C)nc1C(F)F (stereo not shown) [Compound 1.069, 3-difluoromethyl-1-methyl-1H-pyrazole-4-carboxylic acid [1-methyl-4-(2,4,6-trichloro-phenyl)-butyl]-amide]
not listed: Puccinia recondita | Botrytis cinerea
≥ 50%: all other assays above

CC(COCc1c(Cl)cccc1Cl)NC(=O)c1cn(C)nc1C(F)F (stereo not shown) [Compound 1.197, 3-difluoromethyl-1-methyl-1H-pyrazole-4-carboxylic acid [2-(2,6-dichloro-benzyloxy)-1-methyl-ethyl]-amide]
≥ 50%: Pyrenophora teres | Monographella nivalis | Mycosphaerella arachidis | Septoria tritici | Botrytis cinerea
